Assay results: patent publication US20260345555A1, “Compositions and Methods for Protecting Salivary Glands from Off-Target Radiation Damage” (University of Rochester, priority 2022, published 2026)
Structures can show the parent of a compound that is named as a salt.

test system: Reduced glutathione in salivary gland cell clusters (SGm); experiment: Glutathione assay in salivary gland tissue chip, 4 days post-radiation (15 Gy); also first screen of Selleck library at 100 μM; assay type: cell-based, mouse; settings: not given
Source text: A salivary gland tissue chip was leveraged for high-content drug screening to identify novel radioprotective compounds (Song Y et al., Commun Biol., 2021, 4). The chip platform consists of an array of near-spherical microbubble (MB) cavities formed in poly(dimethylsiloxane) (PDMS). Each chip, containing ~50 MBs, affixed within wells of a 96-well plate (FIG. 1C). Primary salivary gland cell clusters (FIG. 1A), suspended in a poly(ethylene glycol) (PEG) hydrogel precursor and MMP-degradable peptide crosslinker solution together with the photoinitiator LAP, were applied to the chip allowing the clusters to deposit into the MBs (FIG. 1D). In situ polymerization of the hydrogel was achieved using long-wave, low intensity UV light. Over time, the cell clusters aggregate and proliferate to form SGm (FIG. 1C).
The glutathione assay was used to measure glutathione levels at various time points post-radiation to determine the optimal time point for detecting differences between 0 Gy and 15 Gy. Based on the data, the greatest signal separation was measured at 4 days post-irradiation (FIG. 9). This timepoint is similar to previous reports on decreases in glutathione post-radiation and was used for all experiments moving forward (Meeks L et al., Physiological Genomics, 2021, 53: 85-98).
The dose response to WR-1065 was examined to determine effective concentrations of WR-1065 to prevent the reduction of glutathione levels post-radiation. A SGm tissue chip was cultured for 4 days to allow spheres to form. The chip was then treated with WR-1065 30 minutes before and during radiation, followed by drug wash out with media 30 minutes post-radiation (FIG. 2A). This dosing scheme is consistent with the use of Amifostine clinically and with previous work. The glutathione assay was performed at 4 days post-radiation (FIG. 2A). […] Moreover, it is clinically relevant as 15-30 minutes before radiation, patients are administered Amifostine intravenously at 200 mg/m (Escobar A et al., IntechOpen, 2019, pp. 15-37; Eisbruch A, J Clin Oncol, 2011, 29: 119-121; Bardet, E. et al. Semin Oncol, 2002, 29, 57-60). Assuming an average adult body surface area of 17,000 cm^2 and a blood volume of 1.35 gallons (5.1 liters), Amifostine is administered at 300 μM (Mosteller, R. D. N Engl J Med 317, 1098 (1987)).
The glutathione and senescence assays were used to screen a library of FDA-approved drugs (Selleck Chemicals) at 100 μM. Drugs were first screened using the glutathione assay according to the timeline depicted in FIG. 2A. Any compound resulting in statistically similar glutathione levels compared to 0 Gy control was considered a hit (FIG. 4, grey circles). Hits with the glutathione assay were then tested with the senescence assay and considered a “double hit” if senescence levels were statistically similar to levels at 0 Gy (FIG. 4, black circles). […] While this hit rate is higher than many other drug screening reports (0.1-0.3%), this may be due to the statistical rigor afforded by the tissue chip format (Blanchard, C et al., Antimicrob Agents Chemother 2016, 60, 862-872; Colquhoun, J. M et al., Antibiotics (Basel) 2019, 8, 48). Additionally, phenotypic screens generally have higher hit rates than target-based screens (>1%) (Moffat, J. G et al., Nature Reviews Drug Discovery 2017, 16, 531-543; Rottman, M et al., Science 2010, 329, 1175-1180).
Mice were euthanized and the submandibular glands (SMG) were removed and chopped with a razor blade for 5 min. The tissue was then incubated in Hank's buffered salt solution (HBSS) containing 15 mM HEPES, 50 U/mL collagenase type II (Thermo Fischer 17101015), and 100 U/mL hyaluronidase (Sigma Aldrich H3506) at 37 °C for 30 min. Cells were centrifuged, then resuspended in HBSS with 15 mM HEPES and passed through 100 μm and 20 μm mesh filters to isolate clusters between 20-100 μm. The digestion protocol produces cell cluster sizes evenly distributed between 20 to 100 μm (Song, Y et al., Advanced Healthcare Materials). […]

SMILES | Glutathione: Normalized mean intensity
O=P1(N(CCCl)CCCl)NCCCO1 (centres unmarked) [Clafen (Cyclophosphamide)] | 0.5778
O=P1(NCCCl)OCCCN1CCCl (centres unmarked) [Ifosfamide] | 0.7162
Cc1c(OCC(F)(F)F)ccnc1C[S+]([O-])c1nc2ccccc2[nH]1 (centres unmarked) [Lansoprazole] | 0.6174
CC(=O)Oc1ccccc1C(=O)Nc1ncc([N+](=O)[O-])s1 [Nitazoxanide (Alinia, Annita)] | 0.5996

same assay, conditions: first screen of Selleck library at 100 μM, 15 Gy, 4 days post-radiation

SMILES | Glutathione normalized mean intensity
CC(C)n1c(/C=C/[C@H](O)C[C@H](O)CC(=O)O)c(-c2ccc(F)cc2)c2ccccc21 (racemic) [Fluvastatin sodium (Lescol)] | 0.5791
NC(=O)c1ncn([C@@H]2O[C@H](CO)[C@@H](O)[C@H]2O)c1N [Acadesine] | 0.3637
C=CCc1cc(OC)c(O)c(C(=O)NCCO)c1 [Alibendol] | 0.7165
COc1ccc(CC2c3cc(OC)c(OC)cc3CC[N+]2(C)CCC(=O)OCCCCCOC(=O)CC[N+]2(C)CCc3cc(OC)c(OC)cc3C2Cc2ccc(OC)c(OC)c2)cc1OC (centres unmarked) [Atracurium besylate] | 0.6611
COc1ccc(C(=O)CC(=O)c2ccc(C(C)(C)C)cc2)cc1 [Avobenzone (Parsol 1789)] | 0.5309
Nc1ncn([C@@H]2O[C@H](CO)[C@@H](O)[C@H]2O)c(=O)n1 [Azacitidine (Vidaza)] | 0.5322
CC[C@H]1OC(=O)[C@H](C)[C@@H](O[C@H]2C[C@@](C)(OC)[C@@H](O)[C@H](C)O2)[C@H](C)[C@@H](O[C@@H]2O[C@H](C)C[C@H](N(C)C)[C@H]2O)[C@](C)(O)C[C@@H](C)CN(C)[C@H](C)[C@@H](O)[C@]1(C)O [Azithromycin (Zithromax)] | 0.8765
c1ccc(-c2ccc(C(c3ccccc3)n3ccnc3)cc2)cc1 (centres unmarked) [Bifonazole] | 0.6115
Clc1ccc(CCC(Cn2ccnc2)Sc2c(Cl)cccc2Cl)cc1 (centres unmarked) [Butoconazole nitrate] | 0.6197
C[C@@](Cc1ccc(O)c(O)c1)(NN)C(=O)O [Carbidopa] | 0.5325
Oc1c(Cl)cc(Cl)c2cccnc12 [Chloroxine] | 0.1604
CN=C(NC#N)NCCSCc1nc[nH]c1C [Cimetidine (Tagamet)] | 0.9597
CN(C)c1ccc(C(=C2C=CC(=[N+](C)C)C=C2)c2ccc(N(C)C)cc2)cc1 [Crystal violet] | 0.1262
O=c1c(-c2ccc(O)cc2)coc2cc(O)ccc12 [Daidzein] | 0.5394
CN(C)[C@@H](CCOc1cccc2ccccc12)c1ccccc1 [Dapoxetine hydrochloride (Priligy)] | 0.7539
CC(=O)OCC(=O)[C@@]12N=C(C)O[C@@H]1C[C@H]1[C@@H]3CCC4=CC(=O)C=C[C@]4(C)[C@H]3[C@@H](O)C[C@@]12C [Deflazacort (Calcort)] | 0.5114
O=C(O)Cc1ccccc1Nc1c(Cl)cccc1Cl [Diclofenac] | 0.334
COc1ccc([C@@H]2Sc3ccccc3N(CCN(C)C)C(=O)[C@@H]2OC(C)=O)cc1 [Diltiazem HCL (Tiazac)] | 0.7425
CN(C)CCOC(c1ccccc1)c1ccccc1 [Diphenhydramine HCl (Benadryl)] | 0.6149
OCCN(CCO)c1nc(N2CCCCC2)c2nc(N(CCO)CCO)nc(N3CCCCC3)c2n1 [Dipyridamole (Persantine)] | 0.5847
O=C([O-])c1cc(=O)c2c(OCC(O)COc3cccc4oc(C(=O)[O-])cc(=O)c34)cccc2o1.[Na+].[Na+] [Disodium Cromoglycate] | 0.6798
CCOC(=O)[C@H](CCc1ccccc1)N[C@@H](C)C(=O)N1CCC[C@H]1C(=O)O [Enalapril maleate (Vasotec)] | 0.8307
O=C(O)CSCC(=O)NC1CCSC1=O (centres unmarked) [Erdosteine] | 0.5728
CCc1cc(C(N)=S)ccn1 [Ethionamide] | 0.7451
CC(C)OC(=O)C(C)(C)Oc1ccc(C(=O)c2ccc(Cl)cc2)cc1 [Fenofibrate (Tricor, Trilipix)] | 0.5348

SMILES | Glutathione normalized mean intensity
CC(C)C(=O)Nc1ccc([N+](=O)[O-])c(C(F)(F)F)c1 [Flutamide (Eulexin)] | 0.6406
Nc1nc(O)c2ncn(COC(CO)CO)c2n1 [Ganciclovir] | 0.5803
O=C(CCCN1CCC(O)(c2ccc(Cl)cc2)CC1)c1ccc(F)cc1 [Haloperidol (Haldol)] | 0.6675
NC(=O)NO [Hydroxyurea (Cytodrox)] | 0.4236
O=c1[nH]c(=O)n([C@H]2C[C@H](O)[C@@H](CO)O2)cc1I [Idoxuridine] | 0.7701
Nc1nc(N)nc(-c2cc(Cl)ccc2Cl)n1 [Irsogladine] | 0.613
NNC(=O)c1ccncc1 [Isoniazid (Tubizid)] | 0.3683
c1ccc([C@H]2CN3CCSC3=N2)cc1 [Levamisole Hydrochloride (Ergamisol)] | 0.8181
C[C@H]1COc2c(N3CCN(C)CC3)c(F)cc3c(=O)c(C(=O)O)cn1c23 [Levofloxacin (Levaquin)] | 0.6541
CC1=CC(=O)c2ccccc2C1=O [Menadione] | 0.4363
CN(C)C(=N)N=C(N)N [Metformin hydrochloride (Glucophage)] | 0.6991
COc1c2occc2cc2ccc(=O)oc12 [Methoxsalen (Oxsoralen)] | 0.6397
COCCc1ccc(OCC(O)CNC(C)C)cc1 (centres unmarked) [Metoprolol tartrate] | 0.829
Cc1ncc([N+](=O)[O-])n1CCO [Metronidazole (Flagyl)] | 0.5627
Cc1cccc(C)c1NC(=O)CN1CCCC1=O [Nefiracetam (Translon)] | 0.6824
NC(=O)c1cccnc1 [Nicotinamide (Niacinamide)] | 0.6872
CNC(=C[N+](=O)[O-])NCCSCc1csc(CN(C)C)n1 [Nizatidine] | 0.5754
C[C@@H]1[C@H](O)[C@@H](C)/C=C/C=C/CC/C=C/C=C/C=C/C=C/C(O[C@H]2O[C@H](C)[C@@H](O)[C@H](N)[C@@H]2O)CC2O[C@](O)(CC(O)C(O)CCC(O)CC(O)CC(O)CC(=O)O[C@H]1C)CC(O)C2C(=O)O (some centres unmarked) [Nystatin (Mycostatin)] | 0.3498
COC(=O)Nc1nc2ccc([S+]([O-])c3ccccc3)cc2[nH]1 (centres unmarked) [Oxfendazole] | 0.6
CCCOc1ccc2nc(NC(=O)OC)[nH]c2c1 [Oxibendazole] | 0.747
CC(C)(S)[C@@H](N)C(=O)O [Penicillamine (Cuprimine)] | 0.7681
O=C1c2ccccc2C(=O)C1c1ccccc1 [Phenindione (Rectadione)] | 0.6802
[I-].[K+] [Potassium iodide] | 0.386
CC(C(=O)O)c1ccc2c(c1)Cc1cccnc1O2 (centres unmarked) [Pranoprofen] | 0.7582
